This note sets out measurements from ChEMBL document CHEMBL1153535, “Nitazoxanide kills replicating and nonreplicating Mycobacterium tuberculosis and evades resistance” (J Med Chem, 2009).

Values after ≈ are worked out from the molar mass of the structure shown. A value given as a limit tells only on which side of the number the result lay.

Series [1] has as its system Mycobacterium tuberculosis. Kind of series: Antimycobacterial activity against Mycobacterium tuberculosis H37Rv in 7H9 liquid medium after 7 days. Type of series: functional. The conditions noted are these: 168 h.
Series [2] deals with Mycobacterium tuberculosis. Kind of series: Antimycobacterial activity against replicating Mycobacterium tuberculosis H37Rv at 62 ug/mL assessed as reduction of log10CFU/mL after 10 days. Type of series: functional.
Series [3] relates to Mycobacterium tuberculosis. The series is described as follows: Antimycobacterial activity against replicating Mycobacterium tuberculosis H37Rv at 62 ug/mL assessed as reduction of log10CFU/mL. Type of series: functional, organism-based. As to conditions: TDE = time-dependent effect.
Series [4] relates to Mycobacterium tuberculosis. The series is described as follows: Antimycobacterial activity against Mycobacterium tuberculosis H37Rv after 8 days in absence of BSA. As to conditions: 192 h. Type of series: functional.
Series [5] has as its system Mycobacterium tuberculosis. The series is described as follows: Antimycobacterial activity against non-replicating Mycobacterium tuberculosis H37Rv at 62 ug/mL assessed as reduction of log10CFU/mL after 6 days relative to control. Type of series: functional.
For the next series, the system named is Giardia. The series is described as follows: Antimicrobial activity against Giardia. Type of series: functional, organism-based.
The test system of series [6] is Mycobacterium tuberculosis. Kind of series: Antimycobacterial activity against Mycobacterium tuberculosis H37Rv in 7H11 solid medium after 7 days. The conditions noted are these: 168 h. Type of series: functional.
Series [7] concerns Mycobacterium tuberculosis. Kind of series: Antimycobacterial activity against non-replicating Mycobacterium tuberculosis H37Rv at 125 ug/mL assessed as reduction of log10CFU/mL after 4 days relative to control. Type of series: functional.
Series [8] has as its system Mycobacterium tuberculosis. Kind of series: Antimycobacterial activity against replicating Mycobacterium tuberculosis H37Rv at 62 ug/mL assessed as reduction of log10CFU/mL after 4 days. Type of series: functional.
For series [9], the system named is Mycobacterium tuberculosis. Kind of series: Antimycobacterial activity against replicating Mycobacterium tuberculosis H37Rv at 125 ug/mL assessed as reduction of log10CFU/mL after 4 days relative to control. Type of series: functional.
Series [10] deals with Mycobacterium tuberculosis. Kind of series: Antimycobacterial activity against Mycobacterium tuberculosis H37Rv after 8 days in presence of 0.04 to 5 mg/mL of BSA. Type of series: functional. As to conditions: 192 h.
In another series the test system is Cryptosporidium. The series is described as follows: Antimicrobial activity against Cryptosporidium. Type of series: functional.
A short description of series [11]: Cmax in human plasma at 500 mg, po. Type of series: ADME, organism-based. On the set-up: dose 500 mg, route oral.

For the compound `CC(=O)Oc1ccccc1C(=O)Nc1ncc([N+](=O)[O-])s1` [NITAZOXANIDE], the MIC in [1] was 16 µg/mL (≈ 52.1 µM); in series [4], 1 µg/mL (≈ 3.25 µM); in [6], 16 µg/mL (≈ 52.1 µM); in series [10], 16 µg/mL; with Cryptosporidium, 10 µg/mL (≈ 32.5 µM). For the same compound, the Activity was 3.5 in series [2]; “tde” in [3]; “>=5” in series [5]; 6 in [7]; 1 in series [8]; 2 in series [9]. In the series with Giardia, the midpoint of inhibition, the IC50, lay at 2.5 µg/mL (≈ 8.14 µM).

Compound `O=C(Nc1ncc([N+](=O)[O-])s1)c1ccccc1O` [TIZOXANIDE] yielded an MIC in series [1] of 16 µg/mL (≈ 60.3 µM). Further, in series [11], the Cmax is 10600 ng/mL.

As usually defined, the MIC is the least concentration at which growth counts as inhibited. The term IC50 denotes the concentration that inhibits the measured activity by half. High values mean a need for much substance, low ones inhibition by little substance. For orientation: Cmax means the highest concentration seen after dosing.
